Source: US6958402B2, “3-(imidazolyl)-2-alkoxypropanoic acids” (Pfizer, Inc., priority 2002, dated 2005)
Structures can show the parent of a compound that is named as a salt.

How the values were obtained:
[1] = molecular target: T1, TAFIa (activated human TAFI) (Homo sapiens, UniProt Q96IY4); assay: Assay for TAFIa inhibition (Ki determination, FAAL substrate hydrolysis); assay type: biochemical; settings: Ki calculated from IC50 with Cheng-Prusoff equation; substrate furylacryloyl-alanyl-lysine, 24° C.; read-out: Ki (TAFla)
T1 sequence (Q96IY4 115-423): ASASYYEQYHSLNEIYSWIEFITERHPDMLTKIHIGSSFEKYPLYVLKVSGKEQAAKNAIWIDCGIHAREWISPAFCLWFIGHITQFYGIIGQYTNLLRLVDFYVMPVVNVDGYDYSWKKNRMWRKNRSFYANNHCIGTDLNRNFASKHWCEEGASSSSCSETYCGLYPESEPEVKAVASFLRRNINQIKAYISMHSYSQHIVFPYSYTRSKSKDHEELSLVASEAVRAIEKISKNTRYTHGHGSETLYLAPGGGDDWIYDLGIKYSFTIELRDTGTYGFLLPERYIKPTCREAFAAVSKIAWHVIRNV
Procedure: The compounds are incubated with activated TAFI and a standard substrate for TAFIa, the rate of hydrolysis of the substrate is determined and compared to the rate of hydrolysis in the absence of the compounds, and the amount of inhibition expressed in terms of Ki.
Human TAFI (recombinant or purified) was activated by incubating 20 μl of stock solution (360 μg/ml) with 10 μl of human thrombin (10NIH units/ml), 10 μl of rabbit thrombomodulin (30 μg/ml), 6 μl calcium chloride (50 mM) in 50 μl of 20 mM HEPES (N-[2-hydroxyethyl]piperazine-N-[2-ethanesulfonic acid]) buffer containing 150 mM sodium chloride and 0.01% TWEEN 80 (polyoxyethylene-sorbitan monooleate) pH 7.6 for 20 minutes at 22° C. At the end of the incubation period, thrombin was neutralised by the addition of 10 μL of PPACK (D-Phe-Pro-Arg chloromethyi ketone) (100 nM). The resulting TAFIa. solution was stored on ice for 5 minutes and finally diluted with 175 μl of HEPES buffer.
(§1) A number of different dilutions of the test compound in water were made up. To 20 μl of each dilution was added 150 μl of HEPES buffer and 10 μl of TAFIa, which was then pre-incubated for 15 minutes at 24° C. To each dilution was then added 20 μl furylacryloyl-alanyl-lysine (FAAL) at a standard concentration. Substrate turnover was measured by reading the absorbance of the reaction mixture at 330 nm every 15 seconds for 30 minutes. The reaction was performed at 24° C. and samples were mixed for 3 seconds prior to each absorbance reading.
(§2) A graph of % inhibition against test compound concentration was then plotted; from which was calculated the IC50 value. The Ki value was then calculated using the Cheng-Prusoff equation.
For the first control, the assay was performed as above, but with 20 μl of water rather than a dilution of the test compound.

human CPN = molecular target: T2, human CPN (Homo sapiens, UniProt P15169); assay: CPN Ki determination (TAFIa assay with human CPN substituted for TAFIa); assay type: biochemical
T2 sequence (P15169 21-458): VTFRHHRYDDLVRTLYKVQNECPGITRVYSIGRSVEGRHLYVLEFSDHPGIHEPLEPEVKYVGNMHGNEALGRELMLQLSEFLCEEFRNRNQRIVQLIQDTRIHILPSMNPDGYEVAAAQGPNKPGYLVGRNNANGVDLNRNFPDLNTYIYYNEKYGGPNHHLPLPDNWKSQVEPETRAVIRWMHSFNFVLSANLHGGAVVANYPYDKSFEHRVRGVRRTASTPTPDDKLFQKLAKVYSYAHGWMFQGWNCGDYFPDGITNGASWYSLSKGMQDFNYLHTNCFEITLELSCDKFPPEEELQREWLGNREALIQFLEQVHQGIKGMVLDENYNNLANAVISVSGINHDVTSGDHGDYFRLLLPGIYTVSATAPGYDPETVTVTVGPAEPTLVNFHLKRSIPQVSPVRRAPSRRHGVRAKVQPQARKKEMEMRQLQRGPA
T2 sequence (P22792 22-545 partner): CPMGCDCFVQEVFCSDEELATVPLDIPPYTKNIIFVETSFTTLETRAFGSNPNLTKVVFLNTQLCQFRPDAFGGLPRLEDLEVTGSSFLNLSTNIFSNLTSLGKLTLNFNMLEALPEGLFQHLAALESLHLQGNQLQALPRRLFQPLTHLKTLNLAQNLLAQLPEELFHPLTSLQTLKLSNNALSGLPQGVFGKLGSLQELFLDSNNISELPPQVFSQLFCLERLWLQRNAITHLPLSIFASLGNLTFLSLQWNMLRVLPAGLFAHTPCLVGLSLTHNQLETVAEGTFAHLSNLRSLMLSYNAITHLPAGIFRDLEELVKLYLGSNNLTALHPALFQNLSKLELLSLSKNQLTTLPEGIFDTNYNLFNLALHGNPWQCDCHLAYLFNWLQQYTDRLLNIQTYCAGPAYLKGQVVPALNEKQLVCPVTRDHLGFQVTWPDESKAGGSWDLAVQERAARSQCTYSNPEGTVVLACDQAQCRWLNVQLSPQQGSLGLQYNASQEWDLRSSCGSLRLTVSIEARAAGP
Procedure: as §1, §2
The selectivity of the compounds of the present invention for TAFIa over CPN was determined by calculating the Ki of the compounds of the present invention for CPN, then comparing it to the Ki for TAFIa. The Ki was calculated using the assay for the calculation of TAFIa Ki, but substituting 10 μl of human CPN for 10 μl of TAFIa.

| Ki [1] [nM] | Selectivity for TAFIa over CPN (human CPN; Ki for CPN compared to Ki for TAFIa) | Ki (human CPN; same assay with 10 μl human CPN in place of TAFIa) [nM] | Structure (SMILES) |
| --- | --- | --- | --- |
| 14 | – | – | NCCOC(Cc1cn(-c2cccc(Oc3ccccc3)c2)cn1)C(=O)O (stereo not shown) [Example 40, 2-(2-Aminoethoxy)-3-[1-(3-phenoxyphenyl)-1H-imidazol-4-yl]propanoic acid dihydrochloride] |
| 10 | – | – | NCCOC(Cc1cn(CCc2ccccc2)cn1)C(=O)O (stereo not shown) [Example 4] |
| 9 | – | – | C[C@H](CN)O[C@@H](Cc1cn(-c2ccc(OC3CCCCC3)cc2)cn1)C(=O)O [Example 49, (2S)-2-{[(1R)-2-Amino-1-methylethyl]oxy}-3-{1-[4-(cyclohexyloxy)phenyl]-1H-imidazol-4-yl}propanoic acid] |
| 26 | >380 | > 10000 | C[C@H](CN)O[C@@H](Cc1c[nH]cn1)C(=O)O [Example 51, (2S)-2-{[(1R)-2-Amino-1-methylethyl]oxy}-3-(1H-imidazol-4-yl)propanoic acid] |

| Structure (SMILES) | Ki [1] [nM] | Selectivity for TAFIa over CPN (human CPN; Ki for CPN compared to Ki for TAFIa) | Ki (human CPN; same assay with 10 μl human CPN in place of TAFIa) [nM] |
| --- | --- | --- | --- |
| NCCO[C@@H](Cc1cn(CCC2CCCCC2)cn1)C(=O)O [Example 5, (2S)-(−)-2-(2-Aminoethoxy)-3-[1-(2-cyclohexylethyl)-1H-imidazol-4-yl]propanoic acid] | 10 | – | – |
